Data: patent publication US20220324909A1, “THERAPEUTIC PEPTIDES” (COHBAR, INC., priority 2019, published 2022)
Non-standard residues stand in square brackets, D forms with d. Primed or numbered codes have the meaning given here. No end group written: not given here. PEG12′ = polyethylene glycol moiety of 12 units

Key:
C2C12 cells [1] = test: Cellular ROS levels induced by TBHP in C2C12 cells (DCFDA); assay type: cell-based, mouse; settings: sulforaphane 10 μM, protective control
Procedure: The protective or synergistic effect of the peptides on cellular levels of reactive oxygen species (ROS) induced by oxidative stress can be assessed using an assay of ROS in cultured cells such as mouse myoblasts exposed to a suitable oxidative stress. Peptides were initially prepared as 10 mM stock in DMSO, diluted to 1 mM in H2O, and added at a final concentration of 10 μM (0.1% DMSO). […] TBHP was used at final concentration of 100 μM. Sulforaphane at final concentration of 10 μM was used as a protective control against TBHP induced ROS production. […] C2C12 cells were grown in DMEM supplemented with 20% FBS with 100 IU/ml penicillin and 100 μg/ml streptomycin. […] C2C12 cells were seeded at 7,500 cells per well on 96-well plates. […] After 18-20 hours of incubation the cells were loaded with DCFDA for 45 min. TBHP at 100 μM was then added to the appropriate wells for 1 hour. ROS activity was determined using a DCFDA Cellular ROS Detection Assay kit (Abcam, Cambridge, Mass.) according to the manufacturer's instructions. Fluorescence in each sample well on the plate was measured using a Cytation 3 plate reader at Ex/Em=485/535 nm (BioTek, Winooski, Vt.). Activity was calculated relative to TBHP control. The relative standard deviation of the sulforaphane control was <20%. The ROS level produced by the sulforaphane control in the presence of TBHP was 52% of the TBHP control.

3T3-L1 mouse adipocytes = test: Free fatty acid levels in cultured 3T3-L1 mouse adipocytes and insulin dependence (Example 17); assay type: cell-based; settings: isoproterenol 0.1 nM; for Free Fatty Acid Levels, Percent of Isoproterenol Control Activity No Insulin: peptide 10 μM alone, relative to isoproterenol treated cells; for Free Fatty Acid Levels, Percent of Isoproterenol Control Activity With Insulin: peptide 10 μM with 0.25 nM insulin, relative to 0.25 nM insulin treated cells
Procedure: The effect of the peptides on fatty acid metabolism can be assessed using an assay to monitor free fatty acid levels produced by cultured cells such as mouse adipocytes. […] Following 3 h incubation, conditioned medium from each well was transferred to a fresh 96-well plate. […] Absorbance values were expressed as percent control activity relative to 0.1 nM isoproterenol treated cells (no insulin) for 10 μM peptide alone or 0.25 nM insulin treated cells (with insulin) for 10 μM peptide in presence of 0.25 nM insulin. […] Data are presented as averages values from 2-3 independent experiments with each data point performed in triplicate.

C2C12 cells [2] = test: Glucose utilization in cultured C2C12 cells and insulin dependence; assay type: cell-based, mouse; settings: 22 h; for Glucose Utilization, Percent of Control Activity No Insulin: peptide 10 μM alone, glucose in medium relative to untreated cells; for Glucose Utilization, Percent of Control Activity With Insulin: peptide 10 μM with 5-20 nM insulin, glucose in medium relative to insulin treated cells
From the text: The effect of the peptides on glucose homeostasis can be assessed using an assay to monitor glucose utilization by cultured cells such as mouse myotubes. […] C2C12 mouse muscle cell line was purchased from Millipore Sigma (Saint Louis, Mo.). […] Three days after plating the medium was removed and with Differentiation Medium (DMEM/low glucose (1 g/L)+2% Horse Serum+antibiotics) added. […] After 5 days of differentiation, the medium was removed from myotube cultures and replaced with Assay Medium (DMEM/low glucose (1 g/L)+antibiotics). […] Following the 5 h incubation the medium was removed and fresh Assay Medium containing compounds added; 10 μM peptide in absence or presence of 5-20 nM insulin, or 1 mM metformin as a potent stimulator of glucose utilization. […] Following 22 h incubation, conditioned medium from each well was transferred to a fresh 96-well plate. Glucose concentrations in the medium were determined using a Glucose Assay kit (Abcam; Cambridge, Mass.) according to the manufacturer's instructions; absorbance measured using a Cytation 3 plate reader at 570 nm (BioTek, Winooski, Vt.). Absorbance values were expressed as percent control activity relative to untreated treated cells (no insulin) for 10 μM peptide alone or 5-20 nM insulin treated cells (with insulin) for 10 μM peptide in presence of 5-20 nM insulin. Untreated cells were used as reference for basal glucose utilization. The relative standard deviation from plate to plate of untreated control was <10%. Metformin at 1 mM was used as a potent control for increasing glucose utilization. Glucose levels for metformin (1 mM) treatment were <10% of the untreated control value. Data are presented as averages values from 2-3 independent experiments with each data point performed in triplicate.

H4-IIE cells = test: Glucose production in cultured H4-IIE cells and insulin dependence; assay type: cell-based, rat; settings: 24 h; for Glucose Production, Percent of Control Activity No Insulin: peptide 10 μM alone, relative to untreated cells; for Glucose Production, Percent of Control Activity With Insulin: peptide 10 μM with 800 μM insulin, relative to insulin treated cells
Procedure: The effect of the peptides on glucose homeostasis can be assessed using an assay to monitor glucose production by cultured cells such as rat hepatocytes. […] Following 24 h incubation, conditioned medium from each well was transferred to a fresh 96-well plate. Glucose concentrations in the medium were determined using a Glucose Assay kit (Abcam; Cambridge, Mass.) according to the manufacturer's instructions; absorbance measured using a Cytation 3 plate reader at 570 nm (BioTek, Winooski, Vt.). […] Untreated cells were used as reference for maximal glucose production. […] Insulin at 800 μM was used as a modest inhibitor glucose production. […] Data are presented as averages values from 2-4 independent experiments with each data point performed in triplicate.

C2C12 cells [3] = test: ATP levels in cultured C2C12 cells (CellTiter-Glo); assay type: cell-based, mouse; settings: lovastatin 10 μM, positive control
Procedure: The effect of the peptides on cellular metabolism can be assessed using an assay of ATP levels in cultured cells such as mouse myoblast cells. Peptides were initially prepared as 10 mM stock in DMSO, diluted to 1 mM in H2O, and used at a final concentration of 10 μM (0.1% DMSO). […] Lovastatin was prepared as 10 mM stock in 70% Ethanol and used at final concentration of 10 μM containing 0.1% DMSO. CellTiter-Glo® Assay kit was purchased from Promega (Madison, Wis.). […] C2C12 cells were grown in DMEM medium supplemented with 20% FBS with 100 IU/ml penicillin and 100 μg/ml streptomycin. […] C2C12 cells were seeded at 800 cells per well on 96-well plates. […] ATP levels were determined using a CellTiter-Glo Assay kit according to the manufacturer's instructions. Luminescence for each sample well on the plate was measured using a Cytation 3 plate reader (BioTek, Winooski, Vt.). Activity was calculated relative to 0.1% DMSO treated control. The relative standard deviation of the result for the 0.1% DMSO treated control was <5%. […] ATP levels for treatment with lovastatin (10 μM) were <50% of the 0.1% DMSO treated control value.

C2C12 cells [4] = test: Cell proliferation in C2C12 cells (Cyquant DNA dye binding); assay type: cell-based, mouse; settings: lovastatin 10 μM, growth arrest control
Procedure: The effect of the peptides on cell proliferation was assessed using a DNA dye binding assay in cultured cells such as mouse myoblast cells. Peptides were initially prepared as 10 mM stock in DMSO, diluted to 1 mM in H2O, and added at a final concentration of 10 μM (0.1% DMSO). Lovastatin was used as a growth arrest control at final concentration of 10 μM. […] C2C12 cells were grown in DMEM supplemented with 20% FBS with 100 IU/ml penicillin and 100 μg/ml streptomycin. […] C2C12 cells were seeded at 800 cells per well on 96-well plates. […] Cell proliferation was determined using Cyquant Direct Nucleic Acid Stain (Thermo Fisher Scientific, Waltham, Mass.) according to the manufacturer's instructions. Fluorescence for each sample well on the plate was measured using a Cytation 3 plate reader at Ex/Em=495/535 nm (BioTek, Winooski, Vt.). Activity was calculated relative to 0.1% DMSO untreated control. The relative standard deviation for the lovastatin control was <27%. The cell proliferation for the lovastatin control was <25% of the value for untreated control.

Compound	ROS level in the presence of TBHP, % of TBHP control (C2C12 cells [1])	Free Fatty Acid Levels, Percent of Isoproterenol Control Activity No Insulin (3T3-L1 mouse adipocytes)	Free Fatty Acid Levels, Percent of Isoproterenol Control Activity With Insulin (3T3-L1 mouse adipocytes)	Glucose Utilization, Percent of Control Activity No Insulin (C2C12 cells [2])	Glucose Utilization, Percent of Control Activity With Insulin (C2C12 cells [2])	Glucose Production, Percent of Control Activity No Insulin (H4-IIE cells)	Glucose Production, Percent of Control Activity With Insulin (H4-IIE cells)	ATP levels, % of 0.1% DMSO treated control value (C2C12 cells [3])	Cell proliferation, % of value for untreated control (C2C12 cells [4])
C[S+]([O-])CCCCN=C=S (stereo not drawn) [sulforaphane, reference compound]	52%	–	–	–	–	–	–	–	–
28 (RRMGYQCLEG[dA]) [compound 28]	–	109%	57.8%	103.3%	88.2%	107.4%	91.4%	–	–
30 (RRMMGMVAQCLEGA; (14)..(14) RRMMGMVAQCLEG(A) [compound 30]	–	102%	56.0%	97.7%	88.3%	105.7%	65.7%	–	–
31 (RRMEVYQCLCG[dA]; not fully specified; printed as RRMEVYQCLCG(dA); cysteine pairing not given here) [compound 31]	–	113%	94.6%	103.7%	99.2%	95.5%	108.3%	–	–
27 (RRMAYQCLEG[dA]) [compound 27]	–	108%	74.2%	101.2%	106.2%	101.7%	98.9%	–	–
29 (RRMMGMVYQCLEG[dA]) [compound 29]	–	110%	52.8%	99.2%	92.3%	113.9%	148.6%	–	–
23 (RRMVFQCLEG[dA]) [compound 23]	–	104%	57.7%	102%	86.6%	104.3%	57.7%	–	–
32 (RRMEVYQCLEG[dA]) [compound 32]	–	108%	62.9%	103.8%	85.0%	99.5%	81.9%	–	–
26 (RREMVYQCLEG[dA]) [compound 26]	–	104%	52.8%	102.2%	98.4%	111.5%	103.1%	–	–
25 (RREMVYQCLCG[dA]; cysteine pairing not given here) [compound 25]	–	110%	67.4%	99.9%	77.4%	108.2%	65.2%	–	–
21 (RRMMGMVFQCLCG[dA]K(PEG12′); cysteine pairing not given here) [compound 21]	–	109%	59.1%	107.5%	86%	98.4%	72.7%	–	–
CC[C@H](C)C(=O)O[C@H]1C[C@@H](C)C=C2C=C[C@H](C)[C@H](CC[C@@H]3C[C@@H](O)CC(=O)O3)[C@H]21 [lovastatin, reference compound]	–	–	–	–	–	–	–	< 50%	< 25%
